Values after ≈ are worked out from the molar mass of the structure shown. Read-outs that look alike come from different tables or passages of the source.
What was measured:
[1] = tested on: bacteria; details: as reported in literature; cited from earlier work
[2] = tested on: β-lactamases; details: as reported in literature; cited from earlier work
[3] = tested on: Pr. rettgeri A-21205; test: MIC by tube dilution, Pr. rettgeri A-21205; type: cell-based; details: 37° C.; for M.I.C.: Pr. rettgeri A-21205, overnight
Method: (§1) The in vitro minimum inhibitory concentrations (MIC) of d,l-2-methylpenem-3-carboxylic acid, (+)-2-methylpenem-3-carboxylic acid and (-)-2-methylpenem-3-carboxylic acid were determined for a number of microorganisms as determined by overnight incubation at 37° C. by tube dilution. Ampicillin was included as a comparison compound.

[4] = tested on: Staph. aureus (Pen-Res) A-9606; test: MIC by tube dilution, Staph. aureus (Pen-Res) A-9606; type: cell-based; details: overnight, 37° C.
Method: as §1

[5] = tested on: Str. pneumoniae A-9585; test: MIC by tube dilution, Str. pneumoniae A-9585; type: cell-based; details: Streptococcus pneumoniae, A9585, Str. pneumoniae A-9585, overnight, 37° C.
Method: as §1

[6] = tested on: Str. faecalis A-20688; test: MIC by tube dilution, Str. faecalis A-20688; type: cell-based; details: 37° C.
Method: as §1

[7] = tested on: Ser. marcescens A-20019; test: MIC by tube dilution, Ser. marcescens A-20019; type: cell-based; details: 37° C.
Method: as §1

[8] = tested on: E. coli A-15119; test: MIC by tube dilution, E. coli A-15119; type: cell-based; details: 37° C.
Method: as §1

[9] = tested on: Pr. vulgaris A-9716; test: MIC by tube dilution, Pr. vulgaris A-9716; type: cell-based; details: 37° C.
Method: as §1

[10] = tested on: Ent. cloacae A-9659; test: MIC by tube dilution, Ent. cloacae A-9659; type: cell-based; details: 37° C.
Method: as §1

[11] = tested on: Ent. cloacae A-9656; test: MIC by tube dilution, Ent. cloacae A-9656; type: cell-based; details: 37° C.
Method: as §1

[12] = Mouse blood levels after oral administration; type: in vivo
Text: Blood level values represent averages of 4 experiments for
d,l-2-methylpenem-3-carboxylic acid, 3 for ampicillin and 1 for
Assay Organism: Bacillus megaterium A-9737

[13] = tested on: Str. pyogenes A-9604; test: MIC by tube dilution, Str. pyogenes A-9604; type: cell-based; details: Streptococcus pyogenes, A9604, Str. pyogenes A-9604, overnight, 37° C.
Method: as §1

[14] = tested on: Staph. aureus (Meth-Res) A-15097; test: MIC by tube dilution, Staph. aureus (Meth-Res) A-15097; type: cell-based; details: overnight, 37° C.
Method: as §1

[15] = tested on: E. coli A-20341-1; test: MIC by tube dilution, E. coli A-20341-1; type: cell-based; details: 37° C.
Method: as §1

[16] = in vivo; details: mouse, im, 40 mg/kg
[17] = tested on: Ps. aeruginosa A-9843A; test: MIC by tube dilution, Ps. aeruginosa A-9843A; type: cell-based; details: overnight, 37° C.
Method: as §1

[18] = tested on: K. pneumoniae A-15130; test: MIC by tube dilution, K. pneumoniae A-15130; type: cell-based; details: 37° C.
Method: as §1

[19] = tested on: Pr. mirabilis A-9900; test: MIC by tube dilution, Pr. mirabilis A-9900; type: cell-based; details: 37° C.
Method: as §1

[20] = tested on: Staph. aureus A-9537; test: MIC by tube dilution, Staph. aureus A-9537; type: cell-based; details: Staphylococcus aureus, 37° C.
Method: as §1

[21] = tested on: Pr. morganii A-15153; test: MIC by tube dilution, Pr. morganii A-15153; type: cell-based; details: 37° C.
Method: as §1

[22] = tested on: K. pneumoniae A-20468; test: MIC by tube dilution, K. pneumoniae A-20468; type: cell-based; details: 37° C.; for MIC: Klebsiella pneumoniae, A20468, overnight
Method: as §1

[23] = tested on: Ps. aeruginosa A-21213; test: MIC by tube dilution, Ps. aeruginosa A-21213; type: cell-based; details: 37° C.; for MIC: Pseudomonas aeruginosa, A21213, Ps. aeruginosa A-21213, overnight
Method: as §1

[24] = tested on: bacteria; details: as reported in literature; cited from earlier work; remark: listed apart in the source
[25] = blood, oral, 100 mg./kg., 5 minutes after administration, read-out: Blood Level
[26] = blood, oral, 100 mg./kg., 10 minutes after administration, read-out: Blood Level
[27] = blood, oral, 100 mg./kg., 15 minutes after administration, read-out: Blood Level
[28] = blood, oral, 100 mg./kg., 30 minutes after administration, read-out: Blood Level
[29] = blood, oral, 100 mg./kg., 45 minutes after administration, read-out: Blood Level

CC(=O)NC=C[S+]([O-])C1=C(C(=O)O)N2C(=O)C(C(C)OS(=O)(=O)O)C2C1 (stereo not drawn)
antibacterial activity [1]: some antibacterial activity
β-lactamase inhibition [2]: β-lactamase inhibitor

CC1=C(C(=O)O)N2C(=O)C[C@H]2S1 (racemic) [d,l-2-methylpenem-3-carboxylic acid, 2-Methylpenem-3-carboxylic Acid]
MIC ([3]; Providencia rettgeri, A21205, Pr. rettgeri A-21205, overnight): 4 µg/mL (≈ 21.6 µM)
MIC ([4]; Staphylococcus aureus): 1 µg/mL (≈ 5.4 µM)
MIC [5]: 0.03 µg/mL (≈ 0.162 µM)
MIC ([6]; Enterococcus faecalis, A20688, Str. faecalis A-20688, overnight): 32 µg/mL (≈ 173 µM)
MIC ([7]; Serratia marcescens, A20019, Ser. marcescens A-20019, overnight): 8 µg/mL (≈ 43.2 µM)
MIC ([8]; Escherichia coli, A15119, E. coli A-15119, overnight): 8 µg/mL (≈ 43.2 µM)
MIC ([9]; Proteus vulgaris, A9716, Pr. vulgaris A-9716, overnight): 8 µg/mL (≈ 43.2 µM)
MIC ([10]; Enterobacter cloacae, A9659, Ent. cloacae A-9659, overnight): 16 µg/mL (≈ 86.4 µM)
MIC ([11]; Enterobacter cloacae, A9656, Ent. cloacae A-9656, overnight): 16 µg/mL (≈ 86.4 µM)
concentration at 5 min [12, 25]: 28000 ng/mL
concentration at 10 min [12, 26]: 25100 ng/mL
concentration at 0.25 h [12, 27]: 18400 ng/mL
concentration at 0.5 h [12, 28]: < 5600 ng/mL
concentration at 0.75 h [12, 29]: < 3900 ng/mL
concentration at 1 h ([12]; blood, oral, 100 mg./kg., 60 minutes after administration, read-out: Blood Level): < 4300 ng/mL
concentration at 2 h ([12]; blood, oral, 100 mg./kg., 120 minutes after administration, read-out: Blood Level): < 4300 ng/mL
MIC [13]: 0.13 µg/mL (≈ 0.702 µM)
MIC ([14]; Staphylococcus aureus): 1 µg/mL (≈ 5.4 µM)
MIC ([15]; Escherichia coli, A203411, E. coli A-20341-1, overnight): 16 µg/mL (≈ 86.4 µM)
concentration at 5 min [16]: 27100 ng/mL
concentration at 0.25 h [16]: 12700 ng/mL
concentration at 0.5 h [16]: < 5900 ng/mL
concentration at 0.75 h [16]: < 5900 ng/mL
concentration at 1 h [16]: < 5900 ng/mL
MIC ([17]; Pseudomonas aeruginosa, A9843A): 125 µg/mL (≈ 675 µM)
MIC ([18]; Klebsiella pneumoniae, A15130, K. pneumoniae A-15130, overnight): 16 µg/mL (≈ 86.4 µM)
MIC ([19]; Proteus mirabilis, A9900, Pr. mirabilis A-9900, overnight): 8 µg/mL (≈ 43.2 µM)
MIC ([20]; A9537, Staph. aureus A-9537, overnight): 0.13 µg/mL (≈ 0.702 µM)
MIC ([20]; A9537, Staph. aureus A-9537 and 50% serum, overnight): 8 µg/mL (≈ 43.2 µM)
MIC ([21]; Morganella morganii, A15153, Pr. morganii A-15153, overnight): 16 µg/mL (≈ 86.4 µM)
MIC [22]: > 125 µg/mL
MIC [23]: > 125 µg/mL

CC1(C)S[C@@H]2[C@H](NC(=O)[C@H](N)c3ccc(O)cc3)C(=O)N2[C@H]1C(=O)O [Amoxicillin]
concentration at 5 min [12, 25]: 1500 ng/mL
concentration at 10 min [12, 26]: 7100 ng/mL
concentration at 0.25 h [12, 27]: 9900 ng/mL
concentration at 0.5 h [12, 28]: 14000 ng/mL
concentration at 0.75 h [12, 29]: 15500 ng/mL

CC1(C)S[C@@H]2[C@H](NC(=O)[C@H](N)c3ccccc3)C(=O)N2[C@H]1C(=O)O [Ampicillin]
concentration at 5 min ([12]; in vivo, po, 100 mg/kg): 2100 ng/mL
concentration at 10 min ([12]; in vivo, po, 100 mg/kg): 3900 ng/mL
concentration at 0.25 h ([12]; in vivo, po, 100 mg/kg): 6100 ng/mL
concentration at 0.5 h ([12]; in vivo, po, 100 mg/kg): 8200 ng/mL
concentration at 0.75 h ([12]; in vivo, po, 100 mg/kg): 6100 ng/mL
concentration at 1 h ([12]; in vivo, po, 100 mg/kg): 7900 ng/mL
concentration at 2 h ([12]; in vivo, po, 100 mg/kg): 2800 ng/mL
concentration at 5 min [16]: 20800 ng/mL
concentration at 0.25 h [16]: 22800 ng/mL
concentration at 0.5 h [16]: 20000 ng/mL
concentration at 0.75 h [16]: 11800 ng/mL
concentration at 1 h [16]: 7100 ng/mL

C[C@@H](O)[C@H]1C(=O)N2C(C(=O)O)=C(SCCN)C[C@H]12 [Thienamycin]
antibacterial activity [1]: highly potent broad-spectrum antibiotic

O=C(O)C1C(=CCO)OC2CC(=O)N21 (stereo not drawn) [clavulinic acid]
antibacterial activity [1]: low order of antibacterial activity
effect on in vitro and in vivo activity of some penicillins and cephalosporins [24]: enhances the in vitro and in vivo activity of some penicillins and cephalosporins
β-lactamase inhibition [2]: inhibits the action of certain β-lactamases

CC1=C(C(=O)O)N2C(=O)C[C@H]2S1 [d-2-methylpenem-3-carboxylic acid, (+)-2-methylpenem-3-carboxylic Acid]
M.I.C. [3]: 4 meg./ml.
M.I.C. [17]: 32 meg./ml.
MIC [22]: > 125 µg/mL
MIC [23]: 63 µg/mL (≈ 340 µM)

CC1=C(C(=O)O)N2C(=O)C[C@H]2S1 [l-2-methylpenem-3-carboxylic acid, (-)-2-methylpenem-3-carboxylic Acid]
M.I.C. [3]: > 125 meg./ml.
M.I.C. [4]: > 125 meg./ml.
M.I.C. ([6]; Str. faecalis A-20688, overnight): 125 meg./ml.
M.I.C. ([7]; Ser. marcescens A-20019, overnight): > 125 meg./ml.
M.I.C. ([8]; E. coli A-15119, overnight): > 125 meg./ml.
M.I.C. ([9]; Pr. vulgaris A-9716, overnight): > 125 meg./ml.
M.I.C. ([10]; Ent. cloacae A-9659, overnight): > 125 meg./ml.
M.I.C. ([11]; Ent. cloacae A-9656, overnight): > 125 meg./ml.
M.I.C. [14]: > 125 meg./ml.
M.I.C. ([15]; E. coli A-20341-1, overnight): > 125 meg./ml.
M.I.C. [17]: > 125 meg./ml.
M.I.C. ([18]; K. pneumoniae A-15130, overnight): > 125 meg./ml.
M.I.C. ([19]; Pr. mirabilis A-9900, overnight): > 125 meg./ml.
M.I.C. ([21]; Pr. morganii A-15153, overnight): > 125 meg./ml.
M.I.C. ([22]; overnight): > 125 meg./ml.
M.I.C. ([23]; Ps. aeruginosa A-21213, overnight): > 125 meg./ml.
